Measured values as given in patent publication US4419508A, “20-Dihydro-20-deoxy-23-demycinosyltylosin and process for its production” (Eli Lilly and Company, priority 1981, dated 1983).
In brackets after ≈: the same amount, converted by molar mass. Entries after “also recorded” stand apart in the source; their conditions may differ. Read-outs that look alike come from different tables or passages of the source.

Key:
[1] = tested on: Staphylococcus epidermidis EPI2; type: cell-based; settings: free base, agar dilution
[2] = tested on: Staphylococcus aureus NRRL B313; type: cell-based; settings: NRRLB313
[3] = tested on: Haemophilus influenzae 76; type: cell-based
[4] = tested on: Staphylococcus aureus X400; type: cell-based
[5] = tested on: Klebsiella pneumoniae X26; type: cell-based
[6] = tested on: Streptococcus pyogenes C203; type: cell-based
[7] = tested on: Staphylococcus epidermidis EPI1; type: cell-based
[8] = tested on: Streptococcus sp. group D 9960; type: cell-based
[9] = tested on: pathogenic bacteria, especially gram-positive bacteria and Mycoplasma species; test: Antibacterial activity (in words); type: cell-based; settings: qualitative statement
Text: (§1) Table 3 summarizes the minimal inhibitory concentrations (MIC), as measured by standard agar-dilution assays, at which DH-DO-DMT and DH-DO-OMT (as free bases) inhibit certain bacteria.

[10] = tested on: Streptococcus pneumoniae Park 1; type: cell-based
Escherichia coli N10 = type: cell-based; settings: free base, agar dilution
Text: as §1

[11] = tested on: Klebsiella pneumoniae KAE; type: cell-based; settings: free base, agar dilution
Text: as §1

Escherichia coli EC14 = type: cell-based; settings: free base, agar dilution
Text: as §1

Shigella sonnei N9 = type: cell-based; settings: free base, agar dilution
Text: as §1

[12] = tested on: Streptococcus faecium ATCC 9790; type: cell-based; settings: Enterococcus faecium, ATCC9790
[13] = tested on: Haemophilus influenzae C.L.; type: cell-based
[14] = tested on: Staphylococcus aureus V41; type: cell-based
Escherichia coli TEM = type: cell-based
Solubility = type: physicochemical; settings: for solubility in polar organic solvents: free bases, acetone, methanol, ethanol, chloroform, dimethylformamide, dimethyl sulfoxide; for solubility in water: free bases (rows) or acid addition salts (sets)
[15] = tested on: Peptostreptococcus anaerobius 1428; test: MIC against anaerobic bacteria, standard agar-dilution assay; type: cell-based; settings: end point after 24 hours
[16] = tested on: Bacteroides fragilis 1936B; test: as above; type: cell-based; settings: end point after 24 hours
[17] = tested on: Streptococcus pneumoniae Park I; test: In vivo activity against experimental infections in mice; settings: po
[18] = tested on: Bacteroides vulgatis 1211; test: MIC against anaerobic bacteria, standard agar-dilution assay; type: cell-based; settings: end point after 24 hours
[19] = tested on: Bacteroides corrodens 1874; test: as above; type: cell-based; settings: Eikenella corrodens, end point after 24 hours
M. synoviae = test: MIC against Mycoplasma species; type: cell-based; settings: Mycoplasmopsis synoviae
Text: (§2) In addition, DH-DO-OMT inhibits Mycoplasma species.

M. gallisepticum = test: MIC against Mycoplasma species; type: cell-based; settings: Mycoplasmoides gallisepticum
Text: as §2

[20] = tested on: Peptostreptococcus intermedius 1264; test: MIC against anaerobic bacteria, standard agar-dilution assay; type: cell-based; settings: end point after 24 hours
Peptococcus prevoti 1281 = test: as above; type: cell-based; settings: end point after 24 hours
Method: (§3) Table 4 summarizes the MIC's at which DH-DO-OMT inhibits these bacteria. The MIC's were determined using a standard agar-dilution assay and reading the end point after 24 hours.

[21] = tested on: Clostridium septicum 1128; test: as above; type: cell-based; settings: end point after 24 hours
Method: as §3

[22] = tested on: Bacteroides thetaiotaomicron 1438; test: as above; type: cell-based; settings: Bacteroides thetaiotaomicron, 1438, 24 h
Method: as §3

[23] = tested on: Bacteroides melaninogenicus 2736; test: as above; type: cell-based; settings: end point after 24 hours
[24] = tested on: Eubacterium aerofaciens 1235; test: as above; type: cell-based; settings: Collinsella aerofaciens, end point after 24 hours
[25] = tested on: Propionibacterium acnes 79; test: as above; type: cell-based; settings: Cutibacterium acnes, end point after 24 hours
[26] = tested on: Peptococcus asaccharolyticus 1302; test: as above; type: cell-based; settings: Peptoniphilus asaccharolyticus, end point after 24 hours
[27] = tested on: Fusobacterium necrophorum 6054A; test: as above; type: cell-based; settings: end point after 24 hours
Bacteroides fragilis 111 = test: as above; type: cell-based; settings: end point after 24 hours
[28] = tested on: Staphylococcus aureus 3055; test: In vivo activity against experimental infections in mice; settings: two doses
[29] = tested on: Bacteroides fragilis 1877; test: MIC against anaerobic bacteria, standard agar-dilution assay; type: cell-based; settings: end point after 24 hours
[30] = tested on: Bacteroides melaninogenicus 1856/28; test: as above; type: cell-based; settings: end point after 24 hours
[31] = tested on: Fusobacterium symbiosum 1470; test: as above; type: cell-based; settings: end point after 24 hours
[32] = tested on: Streptococcus pyogenes C203; test: In vivo activity against experimental infections in mice; settings: free base, oral, two doses, bacterial challenge 64 LD50
Chlamydia trachomatis = test: MIC, Chlamydia trachomatis grown in cell culture; type: cell-based
Text: as §2

[33] = tested on: Clostridium perfringens 81; test: microbe, parasite or virus in culture; type: cell-based; settings: Clostridium perfringens, 81, 24 h
[34] = tested on: Clostridium difficile 2994; test: MIC against anaerobic bacteria, standard agar-dilution assay; type: cell-based; settings: Clostridioides difficile, end point after 24 hours

## CCC1CC(C)C(=O)C=CC(C)=CC(CO)C(CC)OC(=O)CC(O)C(C)C1OC1OC(C)C(OC2CC(C)(O)C(O)C(C)O2)C(N(C)C)C1O (stereo not drawn) [DH-DO-DMT, 20-dihydro-20-deoxy-23-demycinosyltylosin]
[1]
  MIC: 64 µg/mL (≈ 87.9 µM)
[2]; Staphylococcus aureus
  MIC: 128 µg/mL (≈ 176 µM)
[3]; Haemophilus influenzae, 76
  MIC: > 128 µg/mL
[4]; Staphylococcus aureus, X400
  MIC: > 128 µg/mL
[5]; Klebsiella pneumoniae, X26
  MIC: > 128 µg/mL
[6]; Streptococcus pyogenes, C203
  MIC: > 128 µg/mL
[7]
  MIC: 128 µg/mL (≈ 176 µM)
[8]; Streptococcus
  MIC: > 128 µg/mL
[9]
  antibacterial activity: inhibit the growth of pathogenic bacteria, especially gram-positive bacteria and Mycoplasma species; also recorded: some antibacterial activity; also recorded: active against gram-positive microorganisms and Mycoplasma species
[10]; PARK1
  MIC: > 128 µg/mL
Escherichia coli N10
  MIC: > 128 µg/mL
[11]
  MIC: > 128 µg/mL
Escherichia coli EC14
  MIC: > 128 µg/mL
Shigella sonnei N9
  MIC: > 128 µg/mL
[12]
  MIC: > 128 µg/mL
[13]; Haemophilus influenzae
  MIC: > 128 µg/mL
[14]; Staphylococcus aureus, V41
  MIC: 128 µg/mL (≈ 176 µM)
Escherichia coli TEM; Escherichia coli
  MIC: > 128 µg/mL
Solubility
  solubility in polar organic solvents: soluble in water and in most polar organic solvents
  solubility in water: soluble in water

## CCC1CC(C)C(=O)C=CC(C)=CC(CO)C(CC)OC(=O)CC(O)C(C)C1OC1OC(C)C(O)C(N(C)C)C1O (stereo not drawn) [DH-DO-OMT, 20-Dihydro-20-deoxy-5-O-mycaminosyltylonolide]
[1]
  MIC: 8 µg/mL (≈ 13.7 µM)
[2]; free base, agar dilution, Staphylococcus aureus NRRL B313, read-out: MIC
  MIC: 4 µg/mL (≈ 6.85 µM)
[3]; free base, agar dilution, Haemophilus influenzae 76, read-out: MIC
  MIC: 16 µg/mL (≈ 27.4 µM)
[4]; free base, agar dilution, Staphylococcus aureus X400, read-out: MIC
  MIC: 8 µg/mL (≈ 13.7 µM)
[15]
  MIC: > 8 µg/mL
[5]; free base, agar dilution, Klebsiella pneumoniae X26, read-out: MIC
  MIC: 4 µg/mL (≈ 6.85 µM)
[16]
  MIC: > 8 µg/mL
[17]
  ED50: 224 mg/kg
[6]; free base, agar dilution, Streptococcus pyogenes C203, read-out: MIC
  MIC: 8 µg/mL (≈ 13.7 µM)
[18]
  MIC: > 8 µg/mL
[19]
  MIC: > 8 µg/mL
[7]; read-out: MIC
  MIC: 8 µg/mL (≈ 13.7 µM)
M. synoviae
  MIC: 12.5 µg/mL (≈ 21.4 µM)
M. gallisepticum
  MIC: 12.5 µg/mL (≈ 21.4 µM)
[20]
  MIC: > 8 µg/mL
Peptococcus prevoti 1281
  MIC: > 8 µg/mL
[21]
  MIC: 2 µg/mL (≈ 3.43 µM)
[22]
  MIC: > 8 µg/mL
[23]
  MIC: > 8 µg/mL
[24]
  MIC: 2 µg/mL (≈ 3.43 µM)
[8]; free base, agar dilution, Streptococcus sp. group D 9960, read-out: MIC
  MIC: 16 µg/mL (≈ 27.4 µM)
[25]
  MIC: 2 µg/mL (≈ 3.43 µM)
[9]
  antibacterial activity: inhibit the growth of pathogenic bacteria, especially gram-positive bacteria and Mycoplasma species; also recorded: active against gram-positive microorganisms and Mycoplasma species
[10]; PARK1, read-out: MIC
  MIC: 8 µg/mL (≈ 13.7 µM)
[26]
  MIC: > 8 µg/mL
[27]
  MIC: 8 µg/mL (≈ 13.7 µM)
Bacteroides fragilis 111
  MIC: > 8 µg/mL
Escherichia coli N10
  MIC: > 128 µg/mL
[11]
  MIC: > 128 µg/mL
Escherichia coli EC14
  MIC: > 128 µg/mL
Shigella sonnei N9
  MIC: > 128 µg/mL
[12]; free base, agar dilution, Streptococcus faecium ATCC 9790, read-out: MIC
  MIC: 16 µg/mL (≈ 27.4 µM)
[13]; free base, agar dilution, Haemophilus influenzae C.L., read-out: MIC
  MIC: 16 µg/mL (≈ 27.4 µM)
[28]; Staphylococcus aureus, 3055, free base, oral, bacterial challenge 100 LD50
  ED50: 44 mg/kg
[28]; Staphylococcus aureus, 3055, sc, free base, subcutaneous, bacterial challenge 221 LD50
  ED50: 37.3 mg/kg
[14]; free base, agar dilution, Staphylococcus aureus V41, read-out: MIC
  MIC: 4 µg/mL (≈ 6.85 µM)
[29]
  MIC: > 8 µg/mL
[30]
  MIC: > 8 µg/mL
Escherichia coli TEM; free base, agar dilution, Escherichia coli TEM, read-out: MIC
  MIC: 64 µg/mL (≈ 110 µM)
[31]
  MIC: > 8 µg/mL
Solubility
  solubility in polar organic solvents: soluble in water and in most polar organic solvents
  solubility in water: soluble in water
[32]
  ED50: 75.3 mg/kg
Chlamydia trachomatis
  MIC: 0.5 µg/mL (≈ 0.857 µM)
[33]
  MIC: 2 µg/mL (≈ 3.43 µM)
[34]
  MIC: 2 µg/mL (≈ 3.43 µM)
